{"source": "paper PMC6560083", "about": "“A mechanism to prevent production of reactive oxygen species by Escherichia coli respiratory complex I” (Nature Communications, 2019)", "molecules": {"B1": {"name": "Aquifex aeolicus complex I subunit NuoE (natural protein)", "chain": "MFKTEFEFPEELKTKLQEHINYFPKKRQAILLCLHEIQNYYGYIPPESLKPLADMLELPLNHVEGVVAFYDMFDREDKAKYRIRVCVSIVCHLMGTNKLLKALENILGIKPGEVTPDGKFKIVPVQCLGACSEAPVFMVNDDEYKFESEVQLNEILSRYT", "notes": "NuoE, subunit of the NADH:ubiquinone oxidoreductase (complex I) of Aquifex aeolicus; 18 kDa; the model comprises 154 amino acids, the first six N-terminal residues not defined (residues up to 160); holds the [2Fe-2S] cluster N1a; Co-produced and co-purified with His-tagged NuoF as the subcomplex NuoEF; also called original NuoEF (subunit E); source: overproducing E. coli strain, purified together …"}, "B2": {"name": "Aquifex aeolicus NuoE variant G129D (natural protein)", "chain": "B1 chain with G129D", "notes": "NuoE of Aquifex aeolicus complex I with G129 exchanged for aspartate; also called G129D^E; Asp-variant of NuoEF; source: E. coli, purified together with NuoF (Source 15Q anion exchange, Ni2+-IDA, size exclusion)"}, "B3": {"name": "Aquifex aeolicus NuoE variant G129S (natural protein)", "chain": "B1 chain with G129S", "notes": "NuoE of Aquifex aeolicus complex I with G129 exchanged for serine; also called G129S^E; Ser-variant of NuoEF; source: E. coli, purified together with NuoF (Source 15Q anion exchange, Ni2+-IDA, size exclusion)"}, "B4": {"name": "E. coli complex I (Escherichia coli K-12) (protein)", "chain": "MKNIIRTPETHPLTWRLRDDKQPVWLDEYRSKNGYEGARKALTGLSPDEIVNQVKDAGLKGRGGAGFSTGLKWSLMPKDESMNIRYLLCNADEMEPGTYKDRLLMEQLPHLLVEGMLISAFALKAYRGYIFLRGEYIEAAVNLRRAIAEATEAGLLGKNIMGTGFDFELFVHTGAGRYICGEETALINSLEGRRANPRSKPPFPATSGAWGKPTCVNNVETLCNVPAILANGVEWYQNISKSKDAGTKLMGFSGRVKNPGLWELPFGTTAREILEDYAGGMRDGLKFKAWQPGGAGTDFLTEAHLDLPMEFESIGKAGSRLGTALAMAVDHEINMVSLVRNLEEFFARESCGWCTPCRDGLPWSVKILRALERGEGQPGDIETLEQLCRFLGPGKTFCAHAPGAVEPLQSAIKYFREEFEAGIKQPFSNTHLINGIQPNLLKERW", "notes": "with NADH-quinone oxidoreductase subunit E; NADH-quinone oxidoreductase subunit G; NADH-quinone oxidoreductase subunit B; NADH-quinone oxidoreductase subunit C/D; NADH-quinone oxidoreductase subunit I; NADH-quinone oxidoreductase subunit A; NADH-quinone oxidoreductase subunit H; NADH-quinone oxidoreductase subunit J; NADH-quinone oxidoreductase subunit K; NADH-quinone oxidoreductase subunit L; …"}}, "key": {"[1]": {"target": "T1, NuoEF of Aquifex aeolicus complex I (Aquifex aeolicus, UniProt O66841)", "T1 construct": "gene nuoF; electron input subcomplex, NuoE (18 kDa) and NuoF (44 kDa) heterodimer, C-terminal hexahistidine tag on NuoF, expressed in E. coli; with NADH-quinone oxidoreductase subunit E", "T1 sequence (O66841 1-426)": "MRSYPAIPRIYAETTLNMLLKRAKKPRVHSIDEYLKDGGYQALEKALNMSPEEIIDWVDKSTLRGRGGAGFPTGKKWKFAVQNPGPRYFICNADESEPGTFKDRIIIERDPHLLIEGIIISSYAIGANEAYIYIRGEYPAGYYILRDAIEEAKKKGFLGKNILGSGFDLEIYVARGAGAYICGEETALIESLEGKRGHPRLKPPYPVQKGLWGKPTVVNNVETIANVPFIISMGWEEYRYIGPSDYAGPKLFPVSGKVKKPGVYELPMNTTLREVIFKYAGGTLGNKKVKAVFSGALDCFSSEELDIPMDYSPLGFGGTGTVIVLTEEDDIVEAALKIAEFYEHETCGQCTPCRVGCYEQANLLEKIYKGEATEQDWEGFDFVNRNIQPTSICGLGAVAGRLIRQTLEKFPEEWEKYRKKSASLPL", "T1 sequence (O66842 1-160 partner)": "B1 chain", "assay": "X-ray crystal structure", "type": "binding", "conditions": "bound cofactor of NuoF, oxidized (6HL2) and dithionite-reduced (6HL4)"}, "[2]": {"target": "T2, NuoEF of Aquifex aeolicus complex I (Aquifex aeolicus, UniProt O66841, S96M)", "T2 construct": "gene nuoF; electron input subcomplex, NuoE (18 kDa) and NuoF (44 kDa) heterodimer, C-terminal hexahistidine tag on NuoF, expressed in E. coli; with NADH-quinone oxidoreductase subunit E", "T2 sequence (O66841 whole entry S96M, one chain of several)": "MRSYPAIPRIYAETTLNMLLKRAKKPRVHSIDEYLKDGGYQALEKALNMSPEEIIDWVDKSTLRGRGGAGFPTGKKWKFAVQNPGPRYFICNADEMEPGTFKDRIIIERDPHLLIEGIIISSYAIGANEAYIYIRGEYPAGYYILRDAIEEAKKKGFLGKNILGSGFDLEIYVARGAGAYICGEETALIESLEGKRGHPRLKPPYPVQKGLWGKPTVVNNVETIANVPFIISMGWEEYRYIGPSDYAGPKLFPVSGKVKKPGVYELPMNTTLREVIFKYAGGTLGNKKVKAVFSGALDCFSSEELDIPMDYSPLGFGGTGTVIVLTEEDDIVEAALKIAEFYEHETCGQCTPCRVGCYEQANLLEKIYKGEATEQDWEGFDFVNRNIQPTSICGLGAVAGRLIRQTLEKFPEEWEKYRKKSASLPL", "assay": "X-ray crystal structure, soaked crystals", "type": "binding"}, "[3]": {"target": "T1, NuoEF of Aquifex aeolicus complex I", "assay": "X-ray crystal structure, soaked crystals", "type": "binding"}, "[4]": {"target": "T3, NuoEF of Aquifex aeolicus complex I (Aquifex aeolicus, UniProt O66841)", "T3 construct": "gene nuoF; electron input subcomplex, NuoE (18 kDa) and NuoF (44 kDa) heterodimer, C-terminal hexahistidine tag on NuoF, expressed in E. coli; with NADH-quinone oxidoreductase subunit E", "assay": "X-ray crystal structure, soaked crystals", "type": "binding", "conditions": "oxidized; ADP moiety defined, nicotinamide ring and its ribose not seen"}, "[5]": {"target": "T3, NuoEF of Aquifex aeolicus complex I", "assay": "X-ray crystal structure, soaked crystals", "type": "binding", "conditions": "oxidized"}, "[6]": {"target": "T4, Aquifex aeolicus complex I subunit NuoF (Aquifex aeolicus, UniProt O66841 1-426)", "T4 construct": "NuoF, subunit of the NADH:ubiquinone oxidoreductase (complex I) of Aquifex aeolicus; 44 kDa; the model contains 418 amino acids, eight residues at the C-terminus and the following hexahistidine tag not defined; Co-produced and co-purified with NuoE as the subcomplex NuoEF; also called original NuoEF (subunit F); source: overproducing E. coli strain, purified together with NuoE (Source 15Q anion …)", "T4 sequence (looked up)": "T1 sequence (O66841 1-426)", "assay": "crystal structure; NuoEF subcomplex crystallized at 20 °C by sitting drop vapor diffusion, 0.1 M Tris/HCl, 1.0 M sodium citrate, pH 6.9-7.1; air-oxidized, dithionite- or NADH-reduced, with and without soaked NAD+ or NADH", "conditions": "both partners purified"}, "[7]": {"target": "T5, Aquifex aeolicus NuoF variant S96M (Aquifex aeolicus, UniProt O66841 1-426, S96M^F)", "T5 construct": "NuoF of Aquifex aeolicus complex I with S96 exchanged for methionine (the residue at the homologous position of E. coli NuoF); The His tag is told for the original NuoF; the variants were purified in the same way (Ni2+-IDA); also called S96M^F; NuoEF S96M^F; source: overproducing E. coli strain, purified together with NuoE (Source 15Q anion exchange, Ni2+-IDA, size exclusion)", "T5 sequence (looked up)": "T1 sequence (O66841 1-426) with S96M", "assay": "crystal structure; NuoEF subcomplex crystallized at 20 °C by sitting drop vapor diffusion, 0.1 M Tris/HCl, 1.0 M sodium citrate, pH 6.9-7.1; air-oxidized, dithionite- or NADH-reduced, with and without soaked NAD+ or NADH", "conditions": "both partners purified"}, "purified protein": {"substrate": "NC(=O)C1=CN([C@@H]2O[C@H](COP(=O)(O)OP(=O)(O)OC[C@H]3O[C@@H](n4cnc5c(N)ncnc54)[C@H](O)[C@@H]3O)[C@@H](O)[C@H]2O)C=CC1", "assay": "purified protein", "type": "biochemical, Escherichia coli", "conditions": "50 mM MES/NaOH, 50 mM NaCl, pH 6.0, electron acceptor of the Km titration not clearly stated (decyl-ubiquinone or ferricyanide)"}}, "note": "Changes are numbered by the printed parent chain. Numbers in names are those of the source."}
{"molecule": "Cc1cc2nc3c(=O)[nH]c(=O)nc-3n(C[C@H](O)[C@H](O)[C@H](O)COP(=O)(O)O)c2cc1C", "note": "[FMN]", "values": [{"measurement": "X-ray crystal structure", "setting": "[1]", "result": "Subunit NuoF binds the FMN cofactor as well as cluster N3"}]}
{"molecule": "NC(=O)C1=CN([C@@H]2O[C@H](COP(=O)(O)OP(=O)(O)OC[C@H]3O[C@@H](n4cnc5c(N)ncnc54)[C@H](O)[C@@H]3O)[C@@H](O)[C@H]2O)C=CC1", "note": "[NADH]", "values": [{"measurement": "X-ray crystal structure, soaked crystals", "setting": "[2]; reduced", "result": "6Q9K (variant S96M, reduced with NADH)"}, {"measurement": "X-ray crystal structure, soaked crystals", "setting": "[3]; NADH soak, reduced state, 1.8-1.9 Å, nicotinamide in tight position, 6HLA with dithionite plus NADH", "result": "crystals of NuoEF were soaked with NAD^+, with NADH and with NADH plus dithionite"}]}
{"molecule": "NC(=O)c1ccc[n+]([C@@H]2O[C@H](COP(=O)(O)OP(=O)(O)OC[C@H]3O[C@@H](n4cnc5c(N)ncnc54)[C@H](O)[C@@H]3O)[C@@H](O)[C@H]2O)c1", "note": "[NAD^+]", "values": [{"measurement": "X-ray crystal structure, soaked crystals", "setting": "[4]", "result": "the oxidized G129D^E variant was soaked with NAD^+"}, {"measurement": "X-ray crystal structure, soaked crystals", "setting": "[5]", "result": "6HLJ (variant G129S, oxidized with NAD^+)"}, {"measurement": "X-ray crystal structure, soaked crystals", "setting": "[2]; oxidized, 3.22 Å", "result": "6R7P (variant S96M, oxidized with NAD^+)"}, {"measurement": "X-ray crystal structure, soaked crystals", "setting": "[3]; oxidized state, 10 mM NAD+ soak, 2.0 Å, loose position, 6HLI: dithionite-reduced, near tight position", "result": "crystals of NuoEF were soaked with NAD^+, with NADH and with NADH plus dithionite"}]}
{"molecule": "B1", "values": [{"measurement": "binding result", "setting": "[6]", "result": "binds"}, {"measurement": "binding result", "setting": "[7]", "result": "binds"}]}
{"molecule": "B2", "values": [{"measurement": "binding result", "setting": "[6]", "result": "binds"}]}
{"molecule": "B3", "values": [{"measurement": "binding result", "setting": "[6]", "result": "binds"}]}
{"molecule": "B4", "values": [{"measurement": "Km", "setting": "purified protein", "result": "13 ± 1", "unit": "µM"}]}
